According to patent US11884676B2, “Substituted pyrimido[1,2-b]pyridazines as positive allosteric modulators of the muscarinic acetylcholine receptor M4” (Vanderbilt University, priority 2020, dated 2024):

Target: T1, Human M4 (Homo sapiens, UniProt P08173)
T1 construct: expressed in transfected cells
T1 sequence (P08173 1-479): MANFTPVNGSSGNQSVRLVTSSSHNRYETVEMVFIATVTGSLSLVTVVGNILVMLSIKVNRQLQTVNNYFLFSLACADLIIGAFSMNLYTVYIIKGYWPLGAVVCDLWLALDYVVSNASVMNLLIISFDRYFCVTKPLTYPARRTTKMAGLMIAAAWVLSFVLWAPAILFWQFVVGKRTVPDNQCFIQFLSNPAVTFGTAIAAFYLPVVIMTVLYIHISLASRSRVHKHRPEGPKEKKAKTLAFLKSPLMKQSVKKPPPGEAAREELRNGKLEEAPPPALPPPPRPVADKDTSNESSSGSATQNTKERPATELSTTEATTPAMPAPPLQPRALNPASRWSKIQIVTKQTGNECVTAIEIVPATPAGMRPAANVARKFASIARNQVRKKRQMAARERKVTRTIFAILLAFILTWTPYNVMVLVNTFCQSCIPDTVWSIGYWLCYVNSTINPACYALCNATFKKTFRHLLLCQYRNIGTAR
Test: mAChR M4 cell-based functional assay (calcium flux, PAM mode)
Settings: hM4-Gqi5 CHO-K1 cells; for Emax at 30 µM: CHO-K1, % ACh maximum at 30 μM; for EC50: concentration-dependent increase in the EC20 acetylcholine response
Method: Human and rat M4 cDNAs, along with the chimeric G protein Gqi5, were transfected into Chinese hamster ovary (CHO-K1) cells purchased from the American Type Culture Collection using Lipofectamine2000. hM4-Gqi5 cells were grown in Ham's F-12 medium containing 10% heat-inactivated fetal bovine serum (FBS), 20 mM HEPES, 50 μg/mL G418 sulfate, and 500 μg/mL Hygromycin B. rM4-Gqi5 cells were grown in DMEM containing 10% heat-inactivated FBS, 20 mM HEPES, 400 μg/mL G418 sulfate, and 500 μg/mL Hygromycin B.
For high throughput measurement of agonist-evoked increases in intracellular calcium, CHO-K1 cells stably expressing muscarinic receptors were plated in growth medium lacking G418 and hygromycin at 15,000 cells/20 μL/well in Greiner 384-well black-walled, tissue culture (TC)-treated, clear-bottom plates (VWR). Cells were incubated overnight at 37° C. and 5% CO2. The next day, cells were washed using an ELX 405 (BioTek) with assay buffer; the final volume was then aspirated to 20 μL. Next, 20 μL of a 2.3 μM stock of Fluo-4/acetoxymethyl ester (Invitrogen, Carlsbad, CA), prepared as a 2.3 mM stock in DMSO and mixed in a 1:1 ratio with 10% (w/v) Pluronic F-127 and diluted in assay buffer, was added to the wells and the cell plates were incubated for 50 min at 37° C. and 5% CO2. Dye was removed by washing with the ELX 405 and the final volume was aspirated to 20 μL. Compound master plates were formatted in an 11 point concentration-response curve (CRC) format (1:3 dilutions) in 100% DMSO with a starting concentration of 10 mM using a BRAVO liquid handler (Agilent). Test compound CRCs were then transferred to daughter plates (240 nL) using the Echo acoustic plate reformatter (Labcyte, Sunnyvale, CA) and then diluted into assay buffer (40 μL) to a 2× stock using a Thermo Fisher Combi (Thermo Fisher Scientific, Waltham, MA).
Calcium flux was measured using the Functional Drug Screening System (FDSS) 6000 or 7000 (Hamamatsu Corporation, Tokyo, Japan) as an increase in the fluorescent static ratio. Compounds were applied to cells (20 μL, 2×) using the automated system of the FDSS at 2-4 seconds into the protocol and the data were collected at 1 Hz. At 144 seconds, 10 μL of an EC20 concentration of the muscarinic receptor agonist acetylcholine was added (5×), followed by the addition of 12 μL of an EC80 concentration of acetylcholine at the 230 second time point (5×). Agonist activity was analyzed as a concentration-dependent increase in calcium mobilization upon compound addition. Positive allosteric modulator activity was analyzed as a concentration-dependent increase in the EC20 acetylcholine response. Antagonist activity was analyzed as a concentration-dependent decrease in the EC80 acetylcholine response. Concentration-response curves were generated using a four-parameter logistical equation in XLFit curve fitting software (IDBS, Bridgewater, NJ) for Excel (Microsoft, Redmond, WA) or Prism (GraphPad Software, Inc., San Diego, CA).
Compounds were synthesized as described above. Activity (EC50 and Emax) was determined in the mAChR M4 cell-based functional assay as described above and the data are shown in Table 2. The compound number corresponds to the compound numbers used in Examples 1 to 11 and Tables 1.

Row | Emax at 30 µM [%] | EC50 [nM] | Structure (SMILES)
1 | 114 | 153 | [2H]C1([2H])Oc2ccc(OC3CCN(c4nn5c(=O)c(N6CCC6)cnc5cc4C)CC3)cc2OC1([2H])[2H] [Compound 35, 3-(azetidin-1-yl)-7-(4-((2,3-dihydrobenzo[b][1,4]dioxin-6-yl-2,2,3,3-d4)oxy)piperidin-1-yl)-8-methyl-4H-pyrimido[1,2-b]pyridazin-4-one]
2 | 116 | 40 | Cc1cc2nc(C)c(F)c(=O)n2nc1N1CC[C@@H](Oc2ccc3c(c2)OCCO3)[C@H](F)C1 [Compound 36, 7-((3R,4R)-4-((2,3-dihydrobenzo[b][1,4]dioxin-6-yl)oxy)-3-fluoropiperidin-1-yl)-3-fluoro-2,8-dimethyl-4H-pyrimido[1,2-b]pyridazin-4-one]
3 | 105 | 134 | Cc1cc2nc(C)c(F)c(=O)n2nc1N1CC[C@H](Oc2ccc3c(c2)OCCO3)[C@@H](F)C1 [Compound 37, 7-((3S,4S)-4-((2,3-dihydrobenzo[b][1,4]dioxin-6-yl)oxy)-3-fluoropiperidin-1-yl)-3-fluoro-2,8-dimethyl-4H-pyrimido[1,2-b]pyridazin-4-one]
4 | 107 | 211 | [2H]C1([2H])Oc2ccc(O[C@H]3CCN(c4nn5c(=O)c(F)c(C)nc5cc4C)C[C@@H]3F)cc2OC1([2H])[2H] [Compound 38, 7-((3S,4S)-4-((2,3-dihydrobenzo[b][1,4]dioxin-6-yl-2,2,3,3-d4)oxy)-3-fluoropiperidin-1-yl)-3-fluoro-2,8-dimethyl-4H-pyrimido[1,2-b]pyridazin-4-one]
5 | 111 | 115 | [2H]C1(Oc2ccc3c(c2)OC([2H])([2H])C([2H])([2H])O3)CCN(c2nn3c(=O)ccnc3cc2C)CC1 [Compound 39, 7-(4-((2,3-dihydrobenzo[b][1,4]dioxin-6-yl-2,2,3,3-d4)oxy)piperidin-1-yl-4-d)-8-methyl-4H-pyrimido[1,2-b]pyridazin-4-one]
6 | 118 | 60 | [2H]C1(Oc2ccc3c(c2)OC([2H])([2H])C([2H])([2H])O3)CCN(c2nn3c(=O)cc(C)nc3cc2C)CC1 [Compound 40, 7-(4-((2,3-dihydrobenzo[b][1,4]dioxin-6-yl-2,2,3,3-d4)oxy)piperidin-1-yl-4-d)-2,8-dimethyl-4H-pyrimido[1,2-b]pyridazin-4-one]
7 | 114 | 159 | [2H]C1([2H])Oc2ccc(O[C@@H]3CCN(c4nn5c(=O)ccnc5cc4C)C[C@H]3F)cc2OC1([2H])[2H] [Compound 41, 7-((3R,4R)-4-((2,3-dihydrobenzo[b][1,4]dioxin-6-yl-2,2,3,3-d4)oxy)-3-fluoropiperidin-1-yl)-8-methyl-4H-pyrimido[1,2-b]pyridazin-4-one]
8 | 105 | 52 | [2H]C1([2H])Oc2ccc(O[C@H]3CCN(c4nn5c(=O)ccnc5cc4C)C[C@@H]3F)cc2OC1([2H])[2H] [Compound 42, 7-((3S,4S)-4-((2,3-dihydrobenzo[b][1,4]dioxin-6-yl-2,2,3,3-d4)oxy)-3-fluoropiperidin-1-yl)-8-methyl-4H-pyrimido[1,2-b]pyridazin-4-one]
9 | 69 | 171 | Cc1cc2nccc(=O)n2nc1N1CC[C@H](Oc2ccc3c(c2)OCCO3)[C@H](F)C1 [Compound 43, 7-((3R,4S)-4-((2,3-dihydrobenzo[b][1,4]dioxin-6-yl)oxy)-3-fluoropiperidin-1-yl)-8-methyl-4H-pyrimido[1,2-b]pyridazin-4-one]
10 | 79 | 224 | Cc1cc(=O)n2nc(N3CC[C@H](Oc4ccc5c(c4)OCCO5)[C@H](F)C3)c(C)cc2n1 [Compound 44, 7-((3R,4S)-4-((2,3-dihydrobenzo[b][1,4]dioxin-6-yl)oxy)-3-fluoropiperidin-1-yl)-2,8-dimethyl-4H-pyrimido[1,2-b]pyridazin-4-one]
11 | 77 | 26 | [2H]C1(Oc2ccc3c(c2)OC([2H])([2H])C([2H])([2H])O3)CCN(c2nn3c(=O)cc(C(F)(F)F)nc3cc2C)CC1 [Compound 45, 7-(4-((2,3-dihydrobenzo[b][1,4]dioxin-6-yl-2,2,3,3-d4)oxy)piperidin-1-yl-4-d)-8-methyl-2-(trifluoromethyl)-4H-pyrimido[1,2-b]pyridazin-4-one]
12 | 81 | 22 | [2H]C1(Oc2ccc3c(c2)OC([2H])([2H])C([2H])([2H])O3)CCN(c2nn3c(=O)c(F)c(C)nc3cc2C)CC1 [Compound 46, 7-(4-((2,3-dihydrobenzo[b][1,4]dioxin-6-yl-2,2,3,3-d4)oxy)piperidin-1-yl-4-d)-3-fluoro-2,8-dimethyl-4H-pyrimido[1,2-b]pyridazin-4-one]
13 | 81 | 51 | [2H]C1(Oc2ccc3c(c2)OC([2H])([2H])C([2H])([2H])O3)CCN(c2nn3c(=O)c(C)c(C)nc3cc2C)CC1 [Compound 47, 7-(4-((2,3-dihydrobenzo[b][1,4]dioxin-6-yl-2,2,3,3-d4)oxy)piperidin-1-yl-4-d)-2,3,8-trimethyl-4H-pyrimido[1,2-b]pyridazin-4-one]
14 | 91 | 46 | [2H]C1(Oc2ccc3c(c2)OCCO3)CCN(c2nn3c(=O)ccnc3cc2C)CC1 [Compound 48, 7-(4-((2,3-dihydrobenzo[b][1,4]dioxin-6-yl)oxy)piperidin-1-yl-4-d)-8-methyl-4H-pyrimido[1,2-b]pyridazin-4-one]
15 | 93 | 10 | [2H]C1(Oc2ccc3c(c2)OCCO3)CCN(c2nn3c(=O)cc(C(F)(F)F)nc3cc2C)CC1 [Compound 49, 7-(4-((2,3-dihydrobenzo[b][1,4]dioxin-6-yl)oxy)piperidin-1-yl-4-d)-8-methyl-2-(trifluoromethyl)-4H-pyrimido[1,2-b]pyridazin-4-one]
16 | 93 | 9 | [2H]C1(Oc2ccc3c(c2)OCCO3)CCN(c2nn3c(=O)c(F)c(C)nc3cc2C)CC1 [Compound 50, 7-(4-((2,3-dihydrobenzo[b][1,4]dioxin-6-yl)oxy)piperidin-1-yl-4-d)-3-fluoro-2,8-dimethyl-4H-pyrimido[1,2-b]pyridazin-4-one]
17 | 94 | 16 | [2H]C1([2H])Oc2ccc(O[C@@H]3CCN(c4nn5c(=O)cc(C)nc5cc4C)C[C@H]3F)cc2OC1([2H])[2H] [Compound 51, 7-((3R,4R)-4-((2,3-dihydrobenzo[b][1,4]dioxin-6-yl-2,2,3,3-d4)oxy)-3-fluoropiperidin-1-yl)-2,8-dimethyl-4H-pyrimido[1,2-b]pyridazin-4-one]
18 | 84 | 168 | Cc1ccc(OC2CCN(c3nn4c(=O)cc(C)nc4cc3C)CC2)cn1 [Compound 52, 2,8-dimethyl-7-(4-((6-methylpyridin-3-yl)oxy)piperidin-1-yl)-4H-pyrimido[1,2-b]pyridazin-4-one]
19 | 86 | 160 | Cc1cc2nccc(=O)n2nc1N1CC[C@@H](Oc2ccc3c(c2)OCO3)[C@H](F)C1 [Compound 53, 7-((3R,4R)-4-(benzo[d][1,3]dioxol-5-yloxy)-3-fluoropiperidin-1-yl)-8-methyl-4H-pyrimido[1,2-b]pyridazin-4-one]
